In patent publication US10294229B2, “Heteroaryl substituted aminopyridine compounds” (BRISTOL-MYERS SQUIBB COMPANY, priority 2015, dated 2019):

These compounds were tested against IRAK4 (Homo sapiens (Human), UniProt Q9NWZ3) (assay: IRAK4 Inhibition Assay). Conditions: ATP 500 μM; IRAK4 0.6 nM.
Format: biochemical
Description: The assays were performed in U-bottom 384-well plates. The final assay volume was 30 μL prepared from 15 μL additions of enzyme and substrates (fluoresceinated peptide and ATP) and test compounds in assay buffer (20 mM HEPES pH 7.2, 10 mM MgCl2, 0.015% Brij 35 and 4 mM DTT). The reaction was initiated by the combination of IRAK4 with substrates and test compounds. The reaction mixture was incubated at room temperature for 60 min. and terminated by adding 45 μL of 35 mM EDTA to each sample. The reaction mixture was analyzed on the Caliper LABCHIP® 3000 (Caliper, Hopkinton, Mass.) by electrophoretic separation of the fluorescent substrate and phosphorylated product. Inhibition data were calculated by comparison to no enzyme control reactions for 100% inhibition and vehicle-only reactions for 0% inhibition. The final concentrations of reagents in the assays are ATP, 500 μM; FL-IPTSPITTTYFFFKKK peptide 1.5 μM; IRAK4, 0.6 nM; and DMSO, 1.6%.

Chain of IRAK4 (Q9NWZ3 whole entry, species assumed): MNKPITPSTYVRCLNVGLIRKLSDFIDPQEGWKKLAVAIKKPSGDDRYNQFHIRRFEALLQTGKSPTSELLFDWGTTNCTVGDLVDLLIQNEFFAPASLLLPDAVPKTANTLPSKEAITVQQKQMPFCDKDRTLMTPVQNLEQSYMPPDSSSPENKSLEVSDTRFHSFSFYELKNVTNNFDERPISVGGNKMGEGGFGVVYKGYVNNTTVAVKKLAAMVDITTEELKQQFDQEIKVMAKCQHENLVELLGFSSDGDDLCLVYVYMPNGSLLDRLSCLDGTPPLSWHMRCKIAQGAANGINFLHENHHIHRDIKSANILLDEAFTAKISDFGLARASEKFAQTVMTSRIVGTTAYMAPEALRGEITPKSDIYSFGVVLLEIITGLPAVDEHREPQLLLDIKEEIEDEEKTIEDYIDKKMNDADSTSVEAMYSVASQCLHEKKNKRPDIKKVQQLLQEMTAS

Question: Which IC50 does the source give for `CC(C)Nc1cc(-n2cnc3cc(C#N)cnc32)ncc1-c1cn([C@@H]2COC[C@H]2O)nn1` (single isomer, unassigned) [Example 74] here?
Answer: 7 nM

Question: For `CC(C)Nc1cc(-n2ncc3cc(C#N)cnc32)ncc1-c1cn(CC(O)Cc2ccccc2)nn1` (single isomer, unassigned) [Example 76, 1-(5-(1-(2-hydroxy-3-phenylpropyl)-1H-1,2,3-triazol-4-yl)-4-(isopropylamino)pyridin-2-yl)-1H-pyrazolo [3,4-b]pyridine-5-carbonitrile], which IC50 is on record?
Answer: 7 nM

Question: Which IC50 does the source give for `CC(C)Nc1cc(-n2ncc3cc(C#N)cnc32)ncc1-c1cn(CC(O)Cc2ccccc2)nn1` (single isomer, unassigned) [Example 77, 1-(5-(1-(2-hydroxy-3-phenylpropyl)-1H-1,2,3-triazol-4-yl)-4-(isopropylamino)pyridin-2-yl)-1H-pyrazolo [3,4-b]pyridine-5-carbonitrile] here?
Answer: 21 nM

Question: How did the IC50 turn out when `CC(C)Nc1cc(-n2cnc3cc(C#N)cnc32)ncc1-c1cn(CC(O)Cc2ccccc2)nn1` (single isomer, unassigned) [Example 78, 3-(5-(1-(2-hydroxy-3-phenylpropyl)-1H-1,2,3-triazol-4-yl)-4-(isopropylamino)pyridin-2-yl)-3H-imidazo[4,5-b]pyridine-6-carbonitrile] was run?
Answer: 43 nM

Question: Which IC50 does the source give for `CC(C)Nc1cc(-n2cnc3cc(C#N)cnc32)ncc1-c1cn(CC(O)Cc2ccccc2)nn1` (single isomer, unassigned) [Example 79, 3-(5-(1-(2-hydroxy-3-phenylpropyl)-1H-1,2,3-triazol-4-yl)-4-(isopropylamino)pyridin-2-yl)-3H-imidazo[4,5-b]pyridine-6-carbonitrile] here?
Answer: 26 nM

Question: How did the IC50 turn out when `CCC(C)(O)Cn1cc(-c2cnc(-n3cnc4cc(C#N)cnc43)cc2NC(C)C)nn1` (single isomer, unassigned) [Example 94, 3-(5-(1-(2-hydroxy-2-methylbutyl)-1H-1,2,3-triazol-4-yl)-4-(isopropylamino)pyridin-2-yl)-3H-imidazo[4,5-b]pyridine-6-carbonitrile] was run?
Answer: 21 nM

Question: How did the IC50 turn out when `CCC(C)(O)Cn1cc(-c2cnc(-n3cnc4cc(C#N)cnc43)cc2NC(C)C)nn1` (single isomer, unassigned) [Example 95, 3-(5-(1-(2-hydroxy-2-methylbutyl)-1H-1,2,3-triazol-4-yl)-4-(isopropylamino)pyridin-2-yl)-3H-imidazo[4,5-b]pyridine-6-carbonitrile] was run?
Answer: 16 nM

Question: `CC(C)Nc1cc(-n2ncc3cc(C#N)cnc32)ncc1-c1cn([C@@H]2CCN(C(=O)C(C)(C)C)C[C@H]2O)nn1` (single isomer, unassigned) [Example 200] was tested. Which IC50 did it give?
Answer: 5 nM

Question: `COC(=O)N1CC[C@@H](n2cc(-c3cnc(-n4ncc5cc(C#N)cnc54)cc3NC(C)C)nn2)[C@H](O)C1` (single isomer, unassigned) [Example 201] was tested. Which IC50 did it give?
Answer: 4 nM

Question: With `COC(=O)N1CC[C@@H](n2cc(-c3cnc(-n4ncc5cc(C#N)cnc54)cc3NC(C)C)nn2)[C@H](O)C1` (single isomer, unassigned) [Example 205] as the compound, how does the IC50 read?
Answer: 5 nM

Question: For `CC(O)Cc1cn(-c2cnc(-n3ncc4cc(C#N)cnc43)cc2NC2CC2)nn1` (single isomer, unassigned) [Example 274, 1-(4-(cyclopropylamino)-5-(4-(2-hydroxypropyl)-1H-1,2,3-triazol-1-yl)pyridin-2-yl)-1H-pyrazolo[3,4-b]pyridine-5-carbonitrile], which IC50 is on record?
Answer: 23 nM

Question: With `CC(O)Cc1cn(-c2cnc(-n3ncc4cc(C#N)cnc43)cc2NC2CC2)nn1` (single isomer, unassigned) [Example 275, 1-(4-(cyclopropylamino)-5-(4-(2-hydroxypropyl)-1H-1,2,3-triazol-1-yl)pyridin-2-yl)-1H-pyrazolo[3,4-b]pyridine-5-carbonitrile] as the compound, how does the IC50 read?
Answer: 30 nM

Question: With `CC(F)Cc1cn(-c2cnc(-n3cnc4cc(C#N)cnc43)cc2NC(C)C)nn1` (single isomer, unassigned) [Example 290, 3-(5-(4-(2-fluoropropyl)-1H-1,2,3-triazol-1-yl)-4-(isopropylamino)pyridin-2-yl)-3H-imidazo[4,5-b]pyridine-6-carbonitrile] as the compound, how does the IC50 read?
Answer: 25 nM

Question: How did the IC50 turn out when `CC(F)Cc1cn(-c2cnc(-n3ncc4cc(C#N)cnc43)cc2NC(C)C)nn1` (single isomer, unassigned) [Example 292, 1-(5-(4-(2-fluoropropyl)-1H-1,2,3-triazol-1-yl)-4-(isopropylamino)pyridin-2-yl)-1H-pyrazolo[3,4-b]pyridine-5-carbonitrile] was run?
Answer: 29 nM

Question: How did the IC50 turn out when `CC(F)Cc1cn(-c2cnc(-n3cnc4cnc(N)nc43)cc2NC(C)C)nn1` (single isomer, unassigned) [Example 293, 9-(5-(4-(2-fluoropropyl)-1H-1,2,3-triazol-1-yl)-4-(isopropylamino)pyridin-2-yl)-9H-purin-2-amine] was run?
Answer: 28 nM

Question: With `CC(C)Nc1cc(-n2ccc3cncnc32)ncc1-c1cn(Cc2cc(=O)[nH]c(=O)[nH]2)nn1` [Example 8, 6-((4-(4-(isopropylamino)-6-(7H-pyrrolo[2,3-d]pyrimidin-7-yl)pyridin-3-yl)-1H-1,2,3-triazol-1-yl)methyl)pyrimidine-2,4(1H,3H)-dione] as the compound, how does the IC50 read?
Answer: 7 nM

Question: Which IC50 does the source give for `CC(C)Nc1cc(-n2ccc3cncnc32)ncc1-c1cn(CCOCCOCCOCCO)nn1` [Example 9, 2-(2-(2-(2-(4-(4-(isopropylamino)-6-(7H-pyrrolo[2,3-d]pyrimidin-7-yl)pyridin-3-yl)-1H-1,2,3-triazol-1-yl)ethoxy)ethoxy)ethoxy) ethanol] here?
Answer: 3 nM

Question: With `CC(C)Nc1cc(-n2ncc3cc(C#N)cnc32)ncc1-c1cn(C2COC2)nn1` [Example 15, 1-(4-(isopropylamino)-5-(1-(oxetan-3-yl)-1H-1,2,3-triazol-4-yl)pyridin-2-yl)-1H-pyrazolo[3,4-b]pyridine-5-carbonitrile] as the compound, how does the IC50 read?
Answer: 7 nM

Question: With `CC(C)Nc1cc(-n2ncc3cc(C#N)cnc32)ncc1-c1cn(C(C)(C)C)nn1` [Example 18, 1-(5-(1-(tert-butyl)-1H-1,2,3-triazol-4-yl)-4-(isopropylamino)pyridin-2-yl)-1H-pyrazolo[3,4-b]pyridine-5-carbonitrile] as the compound, how does the IC50 read?
Answer: 17 nM

Question: How did the IC50 turn out when `CC(C)Nc1cc(-n2ncc3cc(C#N)cnc32)ncc1-c1cn(C2CCOCC2)nn1` [Example 19, 1-(4-(isopropylamino)-5-(1-(tetrahydro-2H-pyran-4-yl)-1H-1,2,3-triazol-4-yl)pyridin-2-yl)-1H-pyrazolo[3,4-b]pyridine-5-carbonitrile] was run?
Answer: 1 nM

Question: `CC(C)Nc1cc(-n2cnc3cc(C#N)cnc32)ncc1-c1cn(C(C)(C)C)nn1` [Example 23, 3-(5-(1-(tert-butyl)-1H-1,2,3-triazol-4-yl)-4-(isopropylamino)pyridin-2-yl)-3H-imidazo[4,5-b]pyridine-6-carbonitrile] was tested. Which IC50 did it give?
Answer: 96 nM

Question: Which IC50 does the source give for `CC(C)Nc1cc(-n2cnc3cc(C#N)cnc32)ncc1-c1cn(C2CCOCC2)nn1` [Example 24, 3-(4-(isopropylamino)-5-(1-(tetrahydro-2H-pyran-4-yl)-1H-1,2,3-triazol-4-yl)pyridin-2-yl)-3H-imidazo[4,5-b]pyridine-6-carbonitrile] here?
Answer: 3 nM

Question: How did the IC50 turn out when `CC(C)Nc1cc(-n2ncc3cc(Cl)cnc32)ncc1-c1cn(C2COC2)nn1` [Example 26, 2-(5-chloro-1H-pyrazolo[3,4-b]pyridin-1-yl)-N-isopropyl-5-(1-(oxetan-3-yl)-1H-1,2,3-triazol-4-yl)pyridin-4-amine] was run?
Answer: 27 nM

Question: With `CC(C)Nc1cc(-n2ncc3cc(Cl)cnc32)ncc1-c1cn(CC2CC2)nn1` [Example 27, 2-(5-chloro-1H-pyrazolo [3,4-b]pyridin-1-yl)-5-(1-(cyclopropylmethyl)-1H-1,2,3-triazol-4-yl)-N-isopropylpyridin-4-amine] as the compound, how does the IC50 read?
Answer: 16 nM

Question: How did the IC50 turn out when `CCCn1cc(-c2cnc(-n3ncc4cc(Cl)cnc43)cc2NC2CC2)nn1` [Example 36, 2-(5-chloro-1H-pyrazolo[3,4-b]pyridin-1-yl)-N-cyclopropyl-5-(1-propyl-1H-1,2,3-triazol-4-yl)pyridin-4-amine] was run?
Answer: 11 nM

Question: With `CCn1cc(-c2cnc(-n3cnc4cc(C#N)cnc43)cc2NC(C)C)nn1` [Example 38, 3-(5-(1-ethyl-1H-1,2,3-triazol-4-yl)-4-(isopropylamino)pyridin-2-yl)-3H-imidazo[4,5-b]pyridine-6-carbonitrile] as the compound, how does the IC50 read?
Answer: 10 nM

Question: With `CCCn1cc(-c2cnc(-n3cnc4cc(C#N)cnc43)cc2NC2CC2)nn1` [Example 43, 3-(4-(cyclopropylamino)-5-(1-propyl-1H-1,2,3-triazol-4-yl)pyridin-2-yl)-3H-imidazo[4,5-b]pyridine-6-carbonitrile] as the compound, how does the IC50 read?
Answer: 6 nM

Question: Which IC50 does the source give for `CC(C)Nc1cc(-n2cnc3cc(C#N)cnc32)ncc1-c1cn(CCCF)nn1` [Example 45, 3-(5-(1-(3-fluoropropyl)-1H-1,2,3-triazol-4-yl)-4-(isopropylamino)pyridin-2-yl)-3H-imidazo[4,5-b]pyridine-6-carbonitrile] here?
Answer: 8 nM

Question: `CC(C)Nc1cc(-n2ncc3cc(C#N)cnc32)ncc1-c1cn(CC#N)nn1` [Example 47, 1-(5-(1-(cyanomethyl)-1H-1,2,3-triazol-4-yl)-4-(isopropylamino)pyridin-2-yl)-1H-pyrazolo[3,4-b]pyridine-5-carbonitrile] was tested. Which IC50 did it give?
Answer: 16 nM

Question: How did the IC50 turn out when `CCCn1cc(-c2cnc(-n3cnc4cc(C#N)cnc43)cc2NC2CCOCC2)nn1` [Example 50, 3-(5-(1-propyl-1H-1,2,3-triazol-4-yl)-4-((tetrahydro-2H-pyran-4-yl)amino)pyridin-2-yl)-3H-imidazo[4,5-b]pyridine-6-carbonitrile] was run?
Answer: 5 nM
